For one data set, the system named is Salmonella typhimurium. In words: Agar diffusion antibacterial activity. As to conditions: for Zone of Inhibition (mm) (average of 3 plates): Compound A approx. 22 μg/disk, Gentamicin 10 mcg per disk, 30-35° C., 2 days. Type of data set: cell-based. How it is done: (§1) The antibiotic activity of Compound A (as the hydrochloride salt) was tested by Agar Diffusion against the following bacterial strains: Staphylococcus aureus, Salmonella typhimurium, Escherichia coli and Pseudomonas aureus. The antibiotic activity of Compound A was compared to that observed for the antibiotic gentamicin (positive control antibiotic). 0.85% saline solution was used as a negative control. The protocol is provided below. A solution containing Compound A hydrochloride, 20 ug per disk, was added to BBL™ Sensi-Disc™. Fifteen Petri dish filled with an agar medium were prepared a day before their use. These were utilized for testing of 5 microorganisms (4 bacterial species including Staphylococcus aureus, Salmonella typhimurium, Pseudomonas aeruginosa, and Escherichia coli, and one fungus (Candida albicans). Triplicate plates were then streaked with each specific microorganism. Twelve plates to be utilized for antibacterial testing were applied with positive control and negative control discs. Positive control discs are impregnated with gentamycin and are available from Becton, Dickinson and Co (ready to be used cartridges, “BBL™ Sensi-Disc™ Antimicrobial Susceptibility Test Discs”). Negative control discs were prepared by soaking dry disks with normal saline solution. These discs were applied by means of a BBL™ dispenser, using aseptic precautions. The remaining (three) plates to be utilized for antifungal properties were also applied with positive and negative controls; however, in this case positive control discs were impregnated with nystatin (available as BBL™ Taxo™ Nystatin Discs Cartridge from BD & Co). Fifteen dry discs (identical to those of positive and negative control discs but with unique identification print on one side, “NY”) were soaked with a solution of Compound A hydrochloride for about 5 minutes. The discs were then carefully transferred (using a sterile forceps) to a sterile empty Petri dish to decant off any excess test solution. Then one disc was applied to each of fifteen plates that were previously applied with positive and negative controls. The approximate loading of compound A was 22 μg/disk. Triplicate plates for each microorganism were assembled together and properly labeled prior to incubation. Plates for antibacterial testing were incubated at 30-35° C. (for 2 days) while for antifungal testing plates were incubated at 24° C. Plates were read for zones of inhibition using Vernier calipers.
Background: Agar diffusion results depend on both activity and mobility in agar.

The next data set deals with Escherichia coli. In words: Agar diffusion antibacterial activity. Type of data set: cell-based. As to conditions: for Zone of Inhibition (mm) (average of 3 plates): Compound A approx. 22 μg/disk, Gentamicin 10 mcg per disk, 30-35° C., 2 days. As to the method:
as §1

Another data set concerns Staphylococcus aureus. In words: Agar diffusion antibacterial activity. The format is cell-based. As to conditions: for Zone of Inhibition (mm) (average of 3 plates): Compound A approx. 22 μg/disk, Gentamicin 10 mcg per disk, 30-35° C., 2 days. How it is done:
as §1

Data set [1] in a line: Agar diffusion antibacterial activity. Type of data set: cell-based. As to conditions: Pseudomonas aureus; for Zone of Inhibition (mm) (average of 3 plates): Compound A approx. 22 μg/disk, Gentamicin 10 mcg per disk, 30-35° C., 2 days. As to the method:
as §1

For another data set, the system named is rats (CD® strain). In words: Four-week intravenous toxicity study in rats. Type of data set: in vivo. As to conditions: 9 mg/kg/day, over a period of 28 days. How it is done: The potential toxicity of an intravenously administered formulation of Compound A (average concentration analysis=95.6%) was studied for four weeks in rats (CD® strain). The vehicle (L-arginine dissolved in saline, 21.7 mg/ml), control (saline solution) and test solutions were administered by an intravenous infusion in the cannulated femoral vein through a dosing port. The dose was administered once per day at approximately the same time (±2 hours) each day throughout the duration of the study. The dose volume was 10 ml/kg per day. All doses were administered using a syringe infusion pump set for the appropriate infusion rate to deliver the proper dose volume over the required infusion duration of 15 minutes. All animals across all groups were examined prior to exposure and all the main study survivors were examined again at the end of study. […] Detailed clinical examinations were made for each animal daily during treatment (approx 30 to 60 minutes post-dosing).

The nature of data set [2]: Solubility of Compound A in solvent mixtures. Type of data set: physicochemical.
The subject of data set [3] is thymidine kinase locus of L5178Y mouse lymphoma cells. As to conditions: vehicle DMSO, maximum concentration 5000 μg/ml.
Experimental: In vitro genotoxicity studies were conducted as a mouse lymphoma study and a chromosomal aberration test. The vehicle was DMSO and the maximum concentration to be tested was 5000 μg/ml for both studies.
In Vitro Mammalian Cell Gene Mutation Test
(L5178Y/TK^+/− Mouse Lymphoma Assay)
The purpose of this study was to evaluate the genotoxic potential of the test article based on quantitation of forward mutations at the thymidine kinase locus of L5178Y mouse lymphoma cells and the sizing of the resulting colonies.
Negative: Test article solvent (or vehicle)
Positive: Methyl methanesulfonate (MMS)
7,12-dimethylbenz(a)anthracene (DMBA)
Data set [4] in a line: pH solubility profile of Compound A in USP buffers at room temperature. As to conditions: for Approximate Solubility: room temperature. The format is physicochemical. As to the method: Testing was conducted using a reciprocating platform shaker (Heidolph® Promax 1020).
The nature of data set [5]: Room temperature stability of the 4.20 mg/ml Compound A dosage form (Table 8). Type of data set: physicochemical. How it is done:
An example of a dosage form containing 4.20 mg/ml of Compound A that is suitable for parenteral (e.g., IM or IV) administration is provided in Table 8. The propylene glycol, PEG-300 and ethanol were added to a volumetric flask and mixed. The acetate buffer pH 5.0 (1M) was then added q.s to volume and the contents of the flask were mixed. Compound A was added to a separate clear dry volumetric flask. Approximately ⅓ of the total propylene glycol, PEG-300 and ethanol mixture was added and the resulting mixture was shaken vigorously for 2 minutes. The remainder of the mixture was then added to the flask to make up the volume. The contents were mixed by gentle shaking or by sonication until a clear solution was obtained. The solution was then filtered through a 0.22μ filter (Millex® GV) using a sterile disposable syringe or vial.

Data set [6] can be described thus: Room temperature stability of the 1.0 mg/ml parenteral dosage form with L-arginine (Table 10). The format is physicochemical. As to conditions: for % Assay / pH: 1 mg/ml solution with L-arginine in normal saline (Table 10). As to the method:
An example of a dosage form containing 1.0 mg/ml of Compound A hydrochloride that is suitable for parenteral (e.g., IM or IV) administration is provided in Table 10. The L-arginine was dissolved in saline and the pH of the solution was adjusted to ˜8.0 using 0.05N HCl. Compound A was then added and the pH of the solution was adjusted to ˜7.40. The solution was then filtered through a 0.22 μm filter.

The subject of data set [7] is human peripheral blood lymphocytes (HPBL). Kind of data set: In vitro mammalian chromosome aberration test. The format is cell-based. As to conditions: vehicle DMSO, maximum concentration 5000 μg/ml. An excerpt: [B] In Vitro Mammalian Chromosome Aberration Test
The purpose of this study was to evaluate the clastogenic potential of a test article based upon its ability to induce chromosome aberrations in human peripheral blood lymphocytes (HPBL).
Negative: Test Article Solvent (or Vehicle)
Positive: Mitomycin C (MMC, CAS number 50-07-7)
Cyclophosphamide (CP, CAS number 6055-19-2)

Setting [8] is: versus Gentamicin (10 mcg per disk).
Setting [9] is: pH 7.0 (0.1 M Potassium Phosphate).
Setting [10] is: pH 9.0 (0.1 M Potassium phosphate).
[11] abbreviates: 4.20 mg/ml Compound A in propylene glycol/ethanol/PEG-300/acetate buffer pH 5.0 (Table 8), batches 1-4.

Values joined by “and” are separate entries in the source; they are usually repeats but may differ in a detail not shown here. Equal entries are not always repeated. Bounds are passed on as bounds.

Turning to `CCO/N=C(\C(=O)N[C@@H]1C(=O)N2C(C(=O)[O-])=C(Sc3nc(-c4cc[n+](C)cc4)cs3)CS[C@H]12)c1nsc(NC(C)=O)n1.Cl` [Compound A hydrochloride, (6R,7R)-7-[[(2Z)-2-(ethoxyimino)-2-[5-(acetamido)-1,2,4-thiadiazol-3-yl]acetyl]amino]-3-[[4-(1-methylpyridini-1-ium-4-yl)-1,3-thiazol-2-yl]sulfanyl]-8-oxo-5-thia-1-azabicylo[4.2.0]oct-2-ene-2-carboxylate hydrochloride], the “Zone of Inhibition (mm) (average of 3 plates)” value in the data set with Salmonella typhimurium worked out at 21.12 mm; in the data set on Escherichia coli, 23.82 mm; in the data set with Staphylococcus aureus, 36.71 mm; in data set [1] it was 9.68 mm. In addition, the results for the “antibacterial activity relative to Gentamicin” value in the data set on Salmonella typhimurium (setting [8]), with Escherichia coli (setting [8]) and in the data set with Staphylococcus aureus (setting [8]) were 117%, 118% and 173%, respectively. In data set [1], the “antibacterial activity (in words)” value is given as “moderate activity”.

In the case of `CCO/N=C(\C(=O)N[C@@H]1C(=O)N2C(C(=O)[O-])=C(Sc3nc(-c4cc[n+](C)cc4)cs3)CS[C@H]12)c1nsc(NC(C)=O)n1` [Compound A, (6R,7R)-7-[[(2Z)-2-(ethoxyimino)-2-[5-(acetamido)-1,2,4-thiadiazol-3-yl]acetyl]amino]-3-[[4-(1-methylpyridinium-4-yl)-1,3-thiazol-2-yl]sulfanyl]-8-oxo-5-thia-1-azabicylo[4.2.0]oct-2ene-2-carboxylate], in the data set with rats (CD® strain), the adverse clinical events result is given as “did not show any adverse clinical events”. Moreover, the “Approximate Solubility” value in data set [2] (8% Propylene Glycol, 2% Ethanol, 2% PEG-300, 5% 1-Methyl-2-pyrrolidinone, 83% Acetate buffer pH 5 (1M)) stood at 2000 µg/mL; in [2] (8% Propylene Glycol, 2% Ethanol, 2% PEG-300, 88% Acetate buffer pH 5 (1M)), 1800 µg/mL; in [2] (8% Propylene Glycol, 2% Ethanol, 5% Benzyl alcohol, 85% Acetate buffer pH 5 (1M) (first entry, r11)), 1500 µg/mL; in [2] (8% Propylene Glycol, 2% Ethanol, 5% Benzyl alcohol, 85% Acetate buffer pH 5 (1M) (second entry, r17)), 3500 µg/mL; in data set [2] (8% Propylene Glycol, 2% Ethanol, 90% Acetate buffer pH 5 (1M)), 1500 µg/mL; in [2] (8% Propylene Glycol, 2% PEG-300, 5% Benzyl alcohol, 85% Acetate buffer pH 5 (1M)), 4000 µg/mL. Also, the “Approximate Solubility” value in data set [2] (8% Propylene Glycol, 9% PEG-300, 83% Acetate buffer pH 5 (1M)) was 1100 µg/mL; in [2] (10% Sodium benzoate in Normal Saline, pH 6.5), 4200 µg/mL; in data set [2] (10% Sodium benzoate in water, pH 6.3), 4200 µg/mL; in [2] (40% Propylene Glycol, 2.5% Ethanol, 57.5% Acetate buffer pH 5), 4200 µg/mL; in [2] (60% Propylene Glycol, 2.5% Ethanol, 37.5% Acetate buffer pH 5) it was above 25000 µg/mL; in [2] (Dimethyl sulfoxide (DMSO)) it was 212000 µg/mL. Moreover, the “Approximate Solubility” value was found to be 1500 µg/mL in data set [2] (Ethanol); 400000 µg/mL in [2] (Methanol); 800 µg/mL in [2] (Sterile water for injection USP); 500 µg/mL in data set [4] (pH 1.0 (0.2 M KCl—HCl)); 4700 µg/mL in data set [4] (pH 3.0 (0.1 M Sodium acetate)); 800 µg/mL in data set [4] (pH 5.0 (0.05 M Sodium acetate)). In addition, the “Approximate Solubility” value in [4] (pH 5.0 (0.1 M Sodium acetate)) worked out at 400 µg/mL; in data set [4] (pH 5.0 (0.5 M Sodium acetate)) it was 500 µg/mL; in [4] (setting [9]) it was 400 µg/mL; in data set [4] (setting [10]) it was 13300 µg/mL. The “genotoxicity result, mouse lymphoma study” value in data set [3] is reported as “negative”. Besides, the Description entry in data set [4] (pH 1.0 (0.2 M KCl—HCl)) was “Solution”; in data set [4] (pH 3.0 (0.1 M Sodium acetate)), “Solution”; in data set [4] (pH 5.0 (0.05 M Sodium acetate)), “Gel”; in data set [4] (pH 5.0 (0.1 M Sodium acetate)), “Gel”; in [4] (pH 5.0 (0.5 M Sodium acetate)), “Gel”; in [4] (setting [9]), “Gel”. Also, the Description result in data set [4] (setting [10]) is recorded as “Solution”. For the same molecule, the “Initial Assay (%)” value in [5] (setting [11]) is 99.2% and 101.3% and 100.5% and 98.5%. The “Initial pH” value in data set [5] (setting [11]) was 6.06 and 6.08 and 6.13. For the same molecule, the “Final Assay (%)” value in data set [5] (4.20 mg/ml Compound A solution (Table 8), 3 hrs at RT, batch 4) is 96.9 (3 hrs at RT) %; in data set [5] (4.20 mg/ml Compound A solution (Table 8), 5 hrs at RT, batches 2 and 3), 97.9 (5 hrs at RT) % and 95.6 (5 hrs at RT) %. In data set [5] (4.20 mg/ml Compound A solution (Table 8), batch 4, 3 hrs at RT), the “Final pH” value was 5.99. The “% Assay” value came to 95.3% in data set [6] (2 hours), 95.1% in [6] (4 hours) and 95.7% in data set [6] (Initial). For the same molecule, the pH in data set [6] (2 hours) is 7.34; in data set [6] (4 hours), 7.41; in data set [6] (Initial), 7.35. Further, the “stability of the solution (in words)” value in [6] (solution containing 1 mg/ml of Compound A) is listed as “stable”. The “genotoxicity result, chromosomal aberration study using human lymphocytes” value in [7] was “negative”.

With Gentamicin [reference compound], the “Zone of Inhibition (mm) (average of 3 plates)” value was found to be 18.03 mm in the data set with Salmonella typhimurium, 20.27 mm with Escherichia coli, 21.27 mm with Staphylococcus aureus and 20.17 mm in data set [1].

The values above are taken from patent US8247400B2, “Cephem compounds useful for the treatment of bacterial infections” (priority 2009, dated 2012).
